Laboratory results from PMC12084297, “Cytoplasmic connexin43-microtubule interactions promote glioblastoma stem-like cell maintenance and tumorigenicity” (Cell Death & Disease, 2025).

Columns and labels:
Assay type in all cases: cell-based, human
VTC-037 GSCs = experiment: Limiting dilution analysis (ELDA), VTC-037 GSCs; conditions: VTC-037, 100 μM every other day, 2 weeks; compared to JM2-scrambled or control
Method: GSCs and PDX GBM22 cells were plated as single cell suspension in low-attachment 96-well plates (GSCs: 100–500 cells per well; GBM22 cells: 500–2000 cells per well), using methods similar to those reported previously. Cells were then treated with peptides every other day. 2 weeks later, gliospheres were observed using phase contrast microscopy on a Revolve microscope (Echo Laboratories). The number of gliospheres was then determined, while the gliosphere size was assessed by diameter measurement. To evaluate stem cell frequency in GSCs, gliosphere formation assay was performed with limiting cell dilutions with cells plated at varying densities in low-attachment 96-well plates. Cells were treated with peptides every other day, and after 2 weeks, gliosphere-positive wells were observed and scored using phase contrast microscopy on a Revolve microscope. The stem cell frequency was analyzed using the online data analysis program ELDA (Extreme Limiting Dilution Analysis).
All quantification was performed on experiments repeated at least three times. Statistical analysis was conducted with GraphPad Prism (GraphPad Software). Data were analyzed for significance using Student’s t test, one-way ANOVA with Tukey’s multiple comparisons test, and presented as mean ± SD. […] Statistical significance between experimental groups was determined using chi-square (χ²) tests within the ELDA framework. […]

Cx43 = Cx43 expression in co-IP input, immunoblot, VTC-037 GSCs; conditions: 50 μM, 24 h
Method: Cells were lysed in RIPA buffer (0.1% sodium dodecyl sulphate, 50 mM Tris pH 7.4, 150 mM NaCl, 1 mM EDTA, 1% Triton X-100, 1% deoxycholic acid, 200 μM Na3VO4, and 1 mM NaF) supplemented with Halt^TM Protease and Phosphatase Inhibitor Cocktail (Thermo Fisher). Lysates were sonicated prior to centrifugation at 4 °C for 20 min at 10,000 x g. Protein concentration was quantified using the DC protein assay (Bio-Rad Laboratories) and a standard curve obtained with increasing concentrations of Bovine Serum Albumin (BSA; Fisher Scientific). Protein samples were normalized to 20 μg total protein per lane and resolved by SDS-PAGE electrophoresis. 4X Bolt LDS sample buffer supplemented with 400 mM DTT (final concentration 1X Bolt LDS with 100 mM DTT) was added to samples before heating at 70 °C for 10 min. […] Membranes were imaged on a ChemiDoc™ imaging system, and analyzed with Image Lab software (Bio-Rad Laboratories). […]
Prior to lysis, cross-linking was completed by incubating cells in DTBP (dimethyl 3,3’-dithiobispropionimidate; 2 mM in PBS) for 30 min at 37 °C followed by a glycine quench (100 mM glycine in PBS) for 15 min at room temperature. […] Protein concentration was quantified using the DC protein assay and a standard curve obtained with increasing concentrations of BSA, and 500 μg of total protein was used per reaction for co-IP. […]

VTC-034 GSCs = experiment: MTS viability, VTC-034 GSCs; conditions: VTC-034 adherent GSCs, 10, 50 or 100 μM, 4 days
Method: Cells were plated in 96-well plates (2000–5000 cells per well) and treated the following day with TMZ (10, 50, or 100 μM), antennapedia, JM2-scrambled, or JM2 (10, 50, or 100 μM). After 4 days, cell viability was monitored following addition of MTS reagent (Promega) according to manufacturer’s instructions. The absorbance at 490 nm was measured using a SpectraMax i3 or iD3 microplate reader (Molecular Devices). For the caspase 3/7 activity assay, cells were plated in 96-well plates (2000 cells per well) and treated with TMZ or peptides as described above. The activity of caspase 3/7 was measured after 48 h using the Caspase-Glo® 3/7 assay (Promega) following the manufacturer’s instructions. Fold change of caspase 3/7 activity was defined as the ratio of caspase 3/7 luminescence in treated cells compared to controls.

**Q.** Which “GSC frequency / self-renewal (limiting dilution)” value (VTC-037 GSCs) does the source give for VFFKGVKDRVKGRSD [JM2] here?
**A.** significant decrease in VTC-001, VTC-034, and VTC-037 GSC frequency

**Q.** What about the “Cx43 expression (co-IP input)” value (Cx43) of the same sequence?
**A.** does not affect Cx43 expression in GSCs

**Q.** What about the “GSC survival (MTS)” value (VTC-034 GSCs) of the same sequence?
**A.** significantly decreased VTC-001, VTC-034, and VTC-037 GSC survival when cultured as adherent cells in a dose-dependent manner
